Entries after “also recorded” stand apart in the source; their conditions may differ.
Assays:
[1] = Cerebral blood flow by cortical laser Doppler during intranasal nitric oxide in intubated rodents; format: in vivo
Protocol: (§1) In intubated rodents, the inventors have shown that cerebral blood flow increases by 100% within 60 minutes of intranasal nitric oxide delivery.

[2] = Carotid artery occlusion model, Speckle laser Doppler, intubated rodents; format: in vivo
Protocol: as §1
Increase in cerebral blood flow is attributable to focal intranasal or intra-oral effect of nitric oxide rather than to systemic absorption of the gas. […] The effect on cerebral blood flow during intranasal delivery of nitric oxide with concomitant air inhalation into the lungs is therefore a focal effect on intranasal and intracranial vasculature attributable specifically to nitric oxide. […] In a non-intubated patient, nitric oxide inhalation can be prevented by occluding the nasal cavity anterior or posterior to the site of gas delivery. This is achieved by means of an anterior occlusion device such a rigid member, an expandable member, a compressible member, a sponge, a porous member, a plug, a balloon, foam and/or combinations of the foregoing, which prevent inhalation through the nostrils while maintaining a high concentration of nitric oxide in the nasal cavity. A non-intubated patient may be allowed to inhale air into the lungs during nitric oxide delivery into the nasal cavity by an optional central lumen with the distal orifice beyond the sites of nasal gas delivery and occlusion device.

[3] = CT perfusion scanning in intubated patients with cerebral ischemia treated with intranasal non-inhaled nitric oxide; format: in vivo, human
[4] = Tolerability of intranasal delivery in humans (normal volunteers); format: in vivo, human; conditions: high concentration
Excerpt: While nitric oxide may be given intranasally and without inhalation into the lungs to intubated, comatose individuals the tolerability of intranasal nitric oxide in awake humans has not previously been investigated. The inventors have tested the effect of nitric oxide in humans (normal volunteers) during intranasal delivery. […] Therefore it can easily be tolerated by awake, non-intubated patients.

[N]=O [nitric oxide]
cerebral blood flow change (FIG. 8) ([1]; cortical laser Doppler, during intranasal administration): doubling of cerebral blood flow | cerebral blood flow increase ([1]; within 60 minutes of intranasal delivery): 100% | perfusion in the ischemic hemisphere ([2]; during carotid occlusion and following ligature release): perfusion is improved in the ischemic hemisphere | cerebral ischemia (FIG. 9) ([2]; intubated rodents, Speckle laser Doppler tracing): reduction of cerebral ischemia | Cerebral Blood Flow, Changes in ACA Watershed ([3]; Post Rx): Normalization, | Mean Transit Time, Changes in ACA Watershed ([3]; Post Rx): Normalization | Mean Transit Time, Left Hemisphere (ischemic) ([3]; Post Rx): 6.0 s | Mean Transit Time, Right Hemisphere (normal) ([3]; Post Rx): 6.1 s | Cerebral Blood Flow, increase in perfusion on L (ACA Watershed) ([3]; Post Rx vs Pre Rx, left ischemic hemisphere): 67% increase in | cerebral perfusion, CT perfusion scanning ([3]; intubated patients / human with focal cerebral ischemia, before vs after treatment): improvement in cerebral perfusion; also recorded: augmentation of cerebral perfusion and normalization of regional perfusion abnormalities | tolerability of intranasal delivery without inhalation [4]: tolerated at high concentration
